Series [1] can be described thus: Solubility. In kind it is physicochemical.
Series [2] deals with Proteus mirabilis ATCC 21100. Description: Antimicrobial spectrum, MIC (Bouillon agar). Conditions: ATCC21100, read-out: Minimum Inhibitory Concentration. It is filed as cell-based. The text has this: (§1) The biological properties of C-19393 E5 are as follows.
Series [3] concerns Alcaligenes faecalis IFO 13111. Description: Antimicrobial spectrum, MIC (Bouillon agar). Particulars: IFO13111, read-out: Minimum Inhibitory Concentration. It is filed as cell-based.
From the text: as §1

Series [4] relates to Pseudomonas aeruginosa IFO 3080. Description: Antimicrobial spectrum, MIC (Bouillon agar). It is filed as cell-based. Conditions: IFO3080, read-out: Minimum Inhibitory Concentration.
From the text: as §1

For series [5], the system named is Salmonella typhimurium IFO 12529. Description: Antimicrobial spectrum, MIC (Bouillon agar). It is filed as cell-based. Particulars: Salmonella enterica, read-out: Minimum Inhibitory Concentration.
From the text: as §1

Series [6] deals with Klebsiella pneumoniae IFO 3317. Description: Antimicrobial spectrum, MIC (Bouillon agar). Conditions: IFO3317, read-out: Minimum Inhibitory Concentration. It is filed as cell-based.
From the text: as §1

Series [7] relates to Staphylococcus aureus 209P. As to the kind of experiment: Antimicrobial spectrum, MIC (Bouillon agar). In kind it is cell-based. Conditions: read-out: Minimum Inhibitory Concentration.
From the text: as §1

In series [8] the test system is Proteus vulgaris IFO 3988. Description: Antimicrobial spectrum, MIC (Bouillon agar). Particulars: IFO3988, read-out: Minimum Inhibitory Concentration. In kind it is cell-based.
From the text: as §1

The subject of series [9] is Sarcina lutea IFO 3232. As to the kind of experiment: Antimicrobial spectrum, MIC (Bouillon agar). In kind it is cell-based. Particulars: Micrococcus luteus, IFO3232, read-out: Minimum Inhibitory Concentration.
From the text: as §1

The test system of series [10] is Bacillus subtilis PCI 219. As to the kind of experiment: Antimicrobial spectrum, MIC (Bouillon agar). It is filed as cell-based. Particulars: PCI219, read-out: Minimum Inhibitory Concentration.
From the text: as §1

The subject of series [11] is Escherichia coli NIHJ. Description: Antimicrobial spectrum, MIC (Bouillon agar). Particulars: read-out: Minimum Inhibitory Concentration. In kind it is cell-based.
From the text: as §1

Series [12] deals with Serratia marcescens IFO 12648. Description: Antimicrobial spectrum, MIC (Bouillon agar). It is filed as cell-based. Particulars: IFO12648, read-out: Minimum Inhibitory Concentration.
From the text: as §1

For series [13], the system named is Comamonas terrigena IFO 13299. As to the kind of experiment: Antimicrobial spectrum, MIC (Bouillon agar). It is filed as cell-based. Particulars: IFO13299, read-out: Minimum Inhibitory Concentration.
From the text: as §1

In series [14] the test system is gram-positive and gram-negative bacteria. Description: Antibacterial activity (summary in words). In kind it is cell-based.
From the text: as §1

The nature of series [15]: Stability of aqueous solution. It is filed as physicochemical. Particulars: neutral pH region.
In series [16] the test system is K-101 strain. As to the kind of experiment: Growth on minimal medium containing compound (Table 4). In kind it is cell-based, Streptomyces griseus subsp. cryophilus. Particulars: 28° C., 4 days. The method, then:
(§2) The 20 plates were selected from among those cultivated with about 20-100 colonies per plate. These colonies were inoculated by the replicate method onto a minimal medium (composition: 10 g of glycerol, 1 g of L-asparagine,1 g of dipotassium phosphate, 0.2 g of magnesium sulfate, 20 g of agar and distilled water; pH 7.1) and a screening medium A (the minimal medium supplemented with 50 mg/l of L-cysteine) and each of the media was incubated at 28° C. for 3 days. Another 20 plates were selected from among those cultivated with about 20-100 colonies per plate. These colonies were replicated on a minimal medium (the same as said composition) and a screening medium B (the minimal medium supplemented with 50 mg/l of sodium thiosulfate) and each of the media was incubated at 28° C. for 3 days. The strains thus obtained were incubated on minimal media containing sodium thiosulfate, L-cysteine or L-methionine in various concentrations at 28° C. for 4 days.

The test system of series [17] is K-4 strain. The series is described as above. In kind it is cell-based, Streptomyces griseus subsp. cryophilus. Particulars: 28° C., 4 days. The protocol: as §2
In series [18] the test system is SR-135 strain. Description: Growth on minimal medium containing compound (Table 5). It is filed as cell-based, Streptomyces griseus subsp. cryophilus. Conditions: 28° C., 4 days. The protocol: (§3) SR-135 and C-19393 strains were incubated on a minimal medium containing sodium thiosulfate, L-cysteine or L-methionine at 28° C. for 4 days.
Series [19] concerns C-19393 strain. The description is as above. Particulars: 28° C., 4 days. In kind it is cell-based, Streptomyces griseus subsp. cryophilus. The protocol:
as §3

For series [20], the system named is C-19393 strain. Description: Growth on minimal medium containing compound (Table 4). It is filed as cell-based, Streptomyces griseus subsp. cryophilus. Also on record: key to the marks not given beside the values. Particulars: 28° C., 4 days. The protocol:
as §2

Series [21] deals with C-19393 strain. As to the kind of experiment: microbe, parasite or virus in culture. Particulars: Streptomyces griseus, 168 h, read-out: Concentration at which growth was inhibited.
Series [22] has as its system SR-135 strain. Particulars: 28° C., 7 days.
In series [23] the test system is C-19393 strain. Particulars: 28° C., 7 days.

Each structure is given as a SMILES string. Entries after “also recorded” stand apart in the source; their conditions may differ. Where a name gives a salt, the structure may show the parent alone. Read-outs that look alike come from different tables or passages of the source.

Turning to `CC(=O)N/C=C/[S+]([O-])C1=C(C(=O)O)N2C(=O)[C@@H]([C@H](C)O)[C@H]2C1` (stereo partly drawn) [C-19393 E5 sodium salt], the Solubility result is given as “insoluble” in series [1] (in acetone), “insoluble” in series [1] (in benzene), “insoluble” in [1] (in ethyl acetate) and “Readily soluble” in series [1] (in water). Also, the MIC in series [2] was 3.13 µg/mL; in series [3] it was 1.56 µg/mL; in [4], 6.25 µg/mL; in series [5] it was 0.78 µg/mL; in series [6] it was 6.25 µg/mL; in [7] it was 0.78 µg/mL. Besides, the MIC in [8] amounted to 1.56 µg/mL; in [9], 0.2 µg/mL; in series [10] it was 0.78 µg/mL; in series [11] it was 0.78 µg/mL; in series [12], 6.25 µg/mL; in [13], 0.78 µg/mL.

For `CC(=O)N/C=C/[S+]([O-])C1=C(C(=O)O)N2C(=O)[C@@H]([C@H](C)O)[C@H]2C1` (stereo partly drawn) [C-19393 E5], in series [14], the Antibacterial/antimicrobial activity entry was “highly active against both gram-positive and gram-negative bacteria; also recorded: strong antimicrobial activity against gram-positive and gram-negative bacteria”. For the same molecule, the “Stability of aqueous solution” value in series [15] was “stable in the neutral pH region”.

For the molecule `N[C@@H](CS)C(=O)O` [L-Cysteine, L-cysteine], the Growth result in series [16] (3.125 mg/l) is on record as “+”; in series [16] (6.25 mg/l), “++”; in [16] (12.5 mg/l) it was “+++”; in [16] (25 mg/l), “+++”; in [16] (50 mg/l), “+++”; in series [16] (100 mg/l) it was “+++”. Also, the Growth entry is reported as “+” in series [17] (3.125 mg/ml (so in the source)); “+” in [17] (6.25 mg/ml (so in the source)); “++” in [17] (12.5 mg/ml (so in the source)); “+++” in series [17] (25 mg/ml (so in the source)); “+++” in series [17] (50 mg/ml (so in the source)); “+++” in series [17] (100 mg/ml (so in the source)). Besides, the Growth result in series [18] (3.125 mg/l) is “++”; in series [18] (6.25 mg/l), “+++”; in [18] (12.5 mg/l), “+++”; in [18] (25 mg/l) it was “+++”; in [18] (50 mg/l), “+++”; in [18] (100 mg/l), “+++”. Moreover, the Growth entry in series [19] (3.125 mg/l), in series [19] (6.25 mg/l), in [19] (12.5 mg/l), in [19] (25 mg/l), in series [19] (50 mg/l) and in [19] (100 mg/l) was “+++” throughout. The Growth result in series [20] (3.125 mg/ml (so in the source)), in [20] (6.25 mg/ml (so in the source)), in [20] (12.5 mg/ml (so in the source)), in series [20] (25 mg/ml (so in the source)), in series [20] (50 mg/ml (so in the source)) and in series [20] (100 mg/ml (so in the source)) was “+++” each time.

Consider `CSCC[C@H](N)C(=O)O` [L-Methionine, L-methionine], for which the Growth entry was “+” in series [16] (3.125 mg/l); “++” in series [16] (6.25 mg/l); “+++” in series [16] (12.5 mg/l); “+++” in series [16] (25 mg/l); “+++” in series [16] (50 mg/l); “+++” in [16] (100 mg/l). Further, the Growth entry in series [17] (3.125 mg/ml (so in the source)) is “+”; in [17] (6.25 mg/ml (so in the source)) it was “++”; in series [17] (12.5 mg/ml (so in the source)) it was “++”; in [17] (25 mg/ml (so in the source)), “+++”; in series [17] (50 mg/ml (so in the source)) it was “+++”; in series [17] (100 mg/ml (so in the source)), “+++”. Also, the Growth result is “++” in series [18] (3.125 mg/l); “+++” in series [18] (6.25 mg/l); “+++” in [18] (12.5 mg/l); “+++” in series [18] (25 mg/l); “+++” in series [18] (50 mg/l); “+++” in series [18] (100 mg/l). The Growth result in series [19] (3.125 mg/l) is recorded as “+++”; in series [19] (6.25 mg/l), “+++”; in series [19] (12.5 mg/l) it was “+++”; in [19] (25 mg/l), “+++”; in [19] (50 mg/l), “++ +”; in series [19] (100 mg/l), “+++”. Moreover, the Growth entry in series [20] (3.125 mg/ml (so in the source)), in [20] (6.25 mg/ml (so in the source)), in series [20] (12.5 mg/ml (so in the source)), in [20] (25 mg/ml (so in the source)), in [20] (50 mg/ml (so in the source)) and in [20] (100 mg/ml (so in the source)) was “+++” throughout.

With `O=[Se](=O)(O)O` [Sodium selenate, sodium selenate], the MIC in series [21] was not below 250 µg/mL. Also, the Growth entry is recorded as “++” in series [22] (62.5 mg/l); “++” in [22] (125 mg/l); “++” in series [22] (250 mg/l); “++” in series [22] (500 mg/l); “++” in [22] (1000 mg/l); “+” in series [22] (2000 mg/l). For the same molecule, the Growth result in series [23] (62.5 mg/l) is “+++”; in series [23] (125 mg/l) it was “++”; in series [23] (250 mg/l), “±”; in series [23] (1000 mg/l) it was “-”; in series [23] (2000 mg/l), “-”.

Turning to `O=S([O-])([O-])=S.[Na+].[Na+]` [Sodium thiosulfate, sodium thiosulfate], the Growth result is recorded as “±” in series [16] (3.125 mg/l); “±” in series [16] (6.25 mg/l); “±” in series [16] (12.5 mg/l); “+” in series [16] (25 mg/l); “++” in series [16] (50 mg/l); “+++” in series [16] (100 mg/l). In addition, the Growth result in series [17] (3.125 mg/ml (so in the source)) is recorded as “+”; in [17] (6.25 mg/ml (so in the source)), “+”; in [17] (12.5 mg/ml (so in the source)), “++”; in [17] (25 mg/ml (so in the source)), “+++”; in [17] (50 mg/ml (so in the source)) it was “+++”; in series [17] (100 mg/ml (so in the source)), “+++”. The Growth result in [18] (3.125 mg/l) was “+”; in series [18] (6.25 mg/l), “++”; in series [18] (12.5 mg/l), “++”; in series [18] (25 mg/l) it was “+++”; in [18] (50 mg/l), “+++”; in [18] (100 mg/l), “+++”. The Growth result in series [19] (3.125 mg/l), in series [19] (6.25 mg/l), in series [19] (12.5 mg/l), in [19] (25 mg/l), in series [19] (50 mg/l) and in [19] (100 mg/l) was “+++” throughout. Further, the Growth entry in series [20] (3.125 mg/ml (so in the source)), in [20] (6.25 mg/ml (so in the source)), in series [20] (12.5 mg/ml (so in the source)), in series [20] (25 mg/ml (so in the source)), in series [20] (50 mg/ml (so in the source)) and in series [20] (100 mg/ml (so in the source)) was “+++” in each case.

Source of the values: patent US4521340A, “Pharmaceutically acceptable salts of the antibiotic C-19393 E5” (priority 1980, dated 1985).
